Reference: US20230233569A1 (Revolution Medicines, Inc., priority 2020, published 2023)
Read-outs that look alike come from different tables or passages of the source.

What was measured:
NCI-H358 (K-Ras G12C) = experiment: CellTiter-Glo cell viability assay, 5-day treatment; format: cell-based; conditions: Homo sapiens, NCI-H358, 120 h, 5-day treatment; read-out: H358 Cell Viability assay data (K-Ras G12C, IC50)
Method in brief: (§1)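 Five-day compound treatment of plated cells; luminescent read after ~30 min at RT. Percent-of-DMSO data fit to a four-parameter logistic model.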

Capan-1 (K-Ras G12V) = experiment: as above; format: cell-based; conditions: Homo sapiens, CAPAN-1, 120 h, 5-day treatment; read-out: Capan-1 Cell Viability assay data (K-Ras G12V, IC50)
Method in brief: as §1

KRAS G12S = KRAS G12S (Homo sapiens, UniProt P01116+P62937, G12S); experiment: Disruption of BRAF RBD interaction with Ras (FRET / MOA assay, with Cyclophilin A); format: biochemical
Sequence of KRAS G12S (P01116 1-169 isoform P01116-2 G12S limits assumed): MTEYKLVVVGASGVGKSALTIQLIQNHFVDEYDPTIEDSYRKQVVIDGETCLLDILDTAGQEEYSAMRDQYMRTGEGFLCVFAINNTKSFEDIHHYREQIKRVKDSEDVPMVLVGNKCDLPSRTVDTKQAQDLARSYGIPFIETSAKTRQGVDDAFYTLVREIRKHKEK
Sequence of KRAS G12S (P62937 whole entry): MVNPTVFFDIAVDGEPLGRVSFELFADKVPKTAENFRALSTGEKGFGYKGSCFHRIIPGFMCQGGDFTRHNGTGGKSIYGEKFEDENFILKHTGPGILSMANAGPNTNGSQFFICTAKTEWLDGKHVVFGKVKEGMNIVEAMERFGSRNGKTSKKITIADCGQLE
Method in brief: (§2)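 TR-FRET readout: a drop in ratio relative to DMSO wells marks disruption of the K-Ras:BRAF RBD complex via compound-induced K-Ras–Cyclophilin A ternary complex. Dosing used ten 3-fold steps from 30 μM final, 3 h at 25 °C, then Eu-anti-His 10 nM plus APC-anti-GST 50 nM for another 1.5 h. Values are IC50s.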

KRAS WT = KRAS WT (Homo sapiens, UniProt P01116+P62937); experiment: as above; format: biochemical
Sequence of KRAS WT (P01116 1-169 isoform P01116-2 limits assumed): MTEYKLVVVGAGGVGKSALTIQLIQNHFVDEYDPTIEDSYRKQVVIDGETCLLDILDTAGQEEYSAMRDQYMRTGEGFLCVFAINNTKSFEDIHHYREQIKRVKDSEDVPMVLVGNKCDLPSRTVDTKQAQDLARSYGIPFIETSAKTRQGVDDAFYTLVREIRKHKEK
Sequence of KRAS WT (P62937 whole entry): as the sequence (P62937 whole entry) above
Method in brief: as §2

KRAS G12C = KRAS G12C (Homo sapiens, UniProt P01116+P62937, G12C); experiment: as above; format: biochemical
Sequence of KRAS G12C (P01116 1-169 isoform P01116-2 G12C): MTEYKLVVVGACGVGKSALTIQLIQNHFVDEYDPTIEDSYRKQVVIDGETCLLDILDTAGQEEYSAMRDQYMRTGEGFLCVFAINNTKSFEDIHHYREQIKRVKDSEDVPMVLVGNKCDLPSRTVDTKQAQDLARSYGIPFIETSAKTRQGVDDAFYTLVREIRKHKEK
Sequence of KRAS G12C (P62937 whole entry): as the sequence (P62937 whole entry) above
Method in brief: as §2

KRAS G12D = KRAS G12D (Homo sapiens, UniProt P01116+P62937, G12D); experiment: as above; format: biochemical
Sequence of KRAS G12D (P01116 1-169 isoform P01116-2 G12D limits assumed): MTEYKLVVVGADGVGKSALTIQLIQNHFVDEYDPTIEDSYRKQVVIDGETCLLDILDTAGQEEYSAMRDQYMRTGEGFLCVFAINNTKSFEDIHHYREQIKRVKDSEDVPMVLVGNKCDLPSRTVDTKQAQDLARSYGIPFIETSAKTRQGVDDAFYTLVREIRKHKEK
Sequence of KRAS G12D (P62937 whole entry): as the sequence (P62937 whole entry) above
Method in brief: as §2

KRAS G13D = KRAS G13D (Homo sapiens, UniProt P01116+P62937, G13D); experiment: as above; format: biochemical
Sequence of KRAS G13D (P01116 1-169 isoform P01116-2 G13D limits assumed): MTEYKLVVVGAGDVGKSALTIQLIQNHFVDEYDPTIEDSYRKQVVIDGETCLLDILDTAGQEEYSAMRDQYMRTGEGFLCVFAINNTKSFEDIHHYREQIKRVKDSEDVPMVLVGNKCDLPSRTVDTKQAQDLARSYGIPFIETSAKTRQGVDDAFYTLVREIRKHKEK
Sequence of KRAS G13D (P62937 whole entry): as the sequence (P62937 whole entry) above
Method in brief: as §2

KRAS G13C = KRAS G13C (Homo sapiens, UniProt P01116+P62937, G13C); experiment: as above; format: biochemical
Sequence of KRAS G13C (P01116 1-169 isoform P01116-2 G13C): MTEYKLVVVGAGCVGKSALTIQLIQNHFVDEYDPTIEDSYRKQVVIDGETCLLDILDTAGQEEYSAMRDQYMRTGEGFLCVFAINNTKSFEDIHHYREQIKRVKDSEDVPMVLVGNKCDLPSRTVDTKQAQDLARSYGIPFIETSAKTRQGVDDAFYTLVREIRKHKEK
Sequence of KRAS G13C (P62937 whole entry): as the sequence (P62937 whole entry) above
Method in brief: as §2

KRAS G12V = KRAS G12V (Homo sapiens, UniProt P01116+P62937, G12V); experiment: as above; format: biochemical
Sequence of KRAS G12V (P01116 1-169 isoform P01116-2 G12V limits assumed): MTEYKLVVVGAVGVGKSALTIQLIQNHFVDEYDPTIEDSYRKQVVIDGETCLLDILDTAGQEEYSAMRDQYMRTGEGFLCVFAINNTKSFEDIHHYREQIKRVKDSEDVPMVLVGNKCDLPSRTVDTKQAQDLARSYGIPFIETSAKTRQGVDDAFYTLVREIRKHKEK
Sequence of KRAS G12V (P62937 whole entry): as the sequence (P62937 whole entry) above
Method in brief: as §2

NRAS G12C = NRAS G12C (Homo sapiens, UniProt P01111+P62937, G12C); experiment: as above; format: biochemical
Sequence of NRAS G12C (P01111 whole entry G12C): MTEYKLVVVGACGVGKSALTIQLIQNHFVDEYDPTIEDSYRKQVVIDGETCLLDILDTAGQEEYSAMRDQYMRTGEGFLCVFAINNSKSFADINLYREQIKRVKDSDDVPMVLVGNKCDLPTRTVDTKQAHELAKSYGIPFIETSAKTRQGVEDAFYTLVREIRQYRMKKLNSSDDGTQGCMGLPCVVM
Sequence of NRAS G12C (P62937 whole entry): as the sequence (P62937 whole entry) above

NRAS Q61R = NRAS Q61R (Homo sapiens, UniProt P01111+P62937, Q61R); experiment: as above; format: biochemical
Sequence of NRAS Q61R (P01111 whole entry Q61R): as the sequence (P01111 whole entry G12C) above, with C12G, Q61R counted along it
Sequence of NRAS Q61R (P62937 whole entry): as the sequence (P62937 whole entry) above
Method in brief: (§3)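 TR-FRET in 25 mM HEPES pH 7.3, 100 mM NaCl, 5 mM MgCl2, 0.1% BSA: 25 μM Cyclophilin A, 12.5 nM His6-Ras-GMPPNP, 50 nM GST-BRAF RBD with compound (10-point 3-fold series from 30 μM), 3 h at 25° C. Anti-His Eu/anti-GST APC added, 1.5 h more; IC50 from decreased FRET ratio versus DMSO.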

KRAS Q61H = KRAS Q61H (Homo sapiens, UniProt P01116+P62937, Q61H); experiment: as above; format: biochemical
Sequence of KRAS Q61H (P01116 1-169 isoform P01116-2 Q61H limits assumed): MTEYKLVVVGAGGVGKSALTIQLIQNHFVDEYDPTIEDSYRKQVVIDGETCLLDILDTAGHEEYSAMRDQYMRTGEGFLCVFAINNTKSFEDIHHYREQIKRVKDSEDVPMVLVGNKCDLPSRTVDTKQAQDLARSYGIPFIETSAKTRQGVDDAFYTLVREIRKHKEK
Sequence of KRAS Q61H (P62937 whole entry): as the sequence (P62937 whole entry) above
Method in brief: as §3

NRAS Q61K = NRAS Q61K (Homo sapiens, UniProt P01111+P62937, Q61K); experiment: as above; format: biochemical
Sequence of NRAS Q61K (P01111 whole entry Q61K): as the sequence (P01111 whole entry G12C) above, with C12G, Q61K counted along it
Sequence of NRAS Q61K (P62937 whole entry): as the sequence (P62937 whole entry) above
Method in brief: as §3

NRAS WT = NRAS WT (Homo sapiens, UniProt P01111+P62937); experiment: as above; format: biochemical
Sequence of NRAS WT (P01111 whole entry): as the sequence (P01111 whole entry G12C) above, with C12G counted along it
Sequence of NRAS WT (P62937 whole entry): as the sequence (P62937 whole entry) above
Method in brief: as §3

[1] = read-out: KRAS G12S FRET data, IC50
[2] = KRAS WT, read-out: KRAS WT FRET data IC50
[3] = read-out: KRAS G12C FRET data, IC50
[4] = read-out: KRAS G12D FRET data, IC50
[5] = KRAS G13D, read-out: KRAS G13D FRET data IC50
[6] = read-out: KRAS G13C FRET data, IC50
[7] = KRAS G12V, read-out: KRAS G12V FRET data IC50
[8] = NRAS G12C, read-out: NRAS G12C FRET data IC50
[9] = NRAS Q61R, read-out: NRAS Q61R FRET data IC50
[10] = KRAS Q61H, read-out: KRAS Q61H FRET data IC50
[11] = NRAS Q61K, read-out: NRAS Q61K FRET data IC50
[12] = NRAS WT, read-out: NRAS WT FRET data IC50

Row | IC50 (NCI-H358 (K-Ras G12C)) | IC50 (KRAS G12S; [1]) | IC50 (KRAS WT; [2]) | IC50 (KRAS G12C; [3]) | IC50 (KRAS G12D; [4]) | IC50 (KRAS G13D; [5]) | IC50 (KRAS G13C; [6]) | IC50 (KRAS G12V; [7]) | IC50 (NRAS G12C; [8]) | IC50 (NRAS Q61R; [9]) | IC50 (KRAS Q61H; [10]) | IC50 (NRAS Q61K; [11]) | IC50 (NRAS WT; [12]) | Compound | IC50 (Capan-1 (K-Ras G12V)) | further results
1 | 100 to 1000 nM | 1000 to 10000 nM | 100 to 1000 nM | 100 to 1000 nM | 1000 to 10000 nM | 1000 to 10000 nM | 100 to 1000 nM | 1000 to 10000 nM | 100 to 1000 nM | 100 to 1000 nM | 100 to 1000 nM | 100 to 1000 nM | 100 to 1000 nM | CCn1c(-c2cc(N3CCN(C)CC3)cnc2[C@H](C)OC)c2c3cc(ccc31)-c1csc(n1)C[C@H](NC(=O)[C@H](C(C)C)N(C)C(=O)[C@H]1CCNC1=O)C(=O)N1CCC[C@H](N1)C(=O)OCC(C)(C)C2 (single isomer, unassigned) [Example A449] | 100 to 1000 nM | 
2 | 100 to 1000 nM | 1000 to 10000 nM | 100 to 1000 nM | 100 to 1000 nM | 1000 to 10000 nM | 1000 to 10000 nM | 1000 to 10000 nM | 1000 to 10000 nM | 100 to 1000 nM | 100 to 1000 nM | 100 to 1000 nM | 100 to 1000 nM | 1000 to 10000 nM | CCn1c(-c2cccnc2[C@H](C)OC)c2c3cc(ccc31)-c1csc(n1)C[C@H](NC(=O)[C@H](C(C)C)N(C)C(=O)N1CC[C@]3(CCN(C)C3=O)C1)C(=O)N1CCC[C@H](N1)C(=O)OCC(C)(C)C2 (single isomer, unassigned) [Example A461] | 100 to 1000 nM | 
3 | < 10 nM | 100 to 1000 nM | 10 to 100 nM | 10 to 100 nM | 100 to 1000 nM | 100 to 1000 nM | 100 to 1000 nM | 10 to 100 nM | 10 to 100 nM | 10 to 100 nM | 10 to 100 nM | 10 to 100 nM | 10 to 100 nM | CCn1c(-c2cccnc2[C@H](C)OC)c2c3cc(ccc31)-c1csc(n1)C[C@H](NC(=O)[C@H](C(C)C)N(C)C(=O)N1CC([C@@H](C)CO)C1)C(=O)N1CCC[C@H](N1)C(=O)OCC(C)(C)C2 (single isomer, unassigned) [Example A487] | 10 to 100 nM | 
4 | 1000 to 10000 nM |  |  |  |  |  |  |  |  |  |  |  |  | CCn1c(-c2cnccc2COC)c2c3cc(ccc31)-c1cc(O)cc(c1)C[C@H](NC(=O)[C@H](C(C)C)N(C)C(=O)[C@H]1CCN(S(C)(=O)=O)C1)C(=O)N1CCC[C@H](N1)C(=O)OCC(C)(C)C2 [Example A24, (2S)—N-[(8S,14S)-22-ethyl-4-hydroxy-21-[4-(methoxymethyl)pyridin-3-yl]-18,18-dimethyl-9,15-dioxo-16-oxa-10,22,28-triazapentacyclo[18.5.2.1^2,6.1^10,14.0^23,27]nonacosa-1(26),2,4,6(29),20,23(27),24-heptaen-8-yl]-2-{1-[(3S)-1-methanesulfonylpyrrolidin-3-yl]-N-methylformamido}-3-methylbutanamide] | 1000 to 10000 nM | IC50 (KRAS G12S; KRAS G12S FRET data, IC50): 100 to 1000 nM; IC50 (KRAS WT; KRAS WT FRET data IC50, KRAS WT): 100 to 1000 nM; IC50 (KRAS G12C; KRAS G12C FRET data, IC50): 100 to 1000 nM; IC50 (KRAS G12D; KRAS G12D FRET data, IC50): 1000 to 10000 nM; IC50 (KRAS G13D; KRAS G13D FRET data IC50, KRAS G13D): 100 to 1000 nM; IC50 (KRAS G13C; KRAS G13C FRET data, IC50): 100 to 1000 nM; IC50 (KRAS G12V; KRAS G12V FRET data IC50, KRAS G12V): 100 to 1000 nM; IC50 (NRAS G12C; NRAS G12C FRET data IC50, NRAS G12C): 100 to 1000 nM; IC50 (NRAS Q61R; NRAS Q61R FRET data IC50, NRAS Q61R): 100 to 1000 nM; IC50 (KRAS Q61H; KRAS Q61H FRET data IC50, KRAS Q61H): 10 to 100 nM; IC50 (NRAS Q61K; NRAS Q61K FRET data IC50, NRAS Q61K): 100 to 1000 nM; IC50 (NRAS WT; NRAS WT FRET data IC50, NRAS WT): 100 to 1000 nM

Row | Compound | IC50 (NCI-H358 (K-Ras G12C)) | IC50 (KRAS G12S; [1]) | IC50 (KRAS WT; [2]) | IC50 (KRAS G12C; [3]) | IC50 (KRAS G12D; [4]) | IC50 (KRAS G13D; [5]) | IC50 (KRAS G13C; [6]) | IC50 (KRAS G12V; [7]) | IC50 (NRAS G12C; [8]) | IC50 (NRAS Q61R; [9]) | IC50 (KRAS Q61H; [10]) | IC50 (NRAS Q61K; [11]) | IC50 (NRAS WT; [12]) | IC50 (Capan-1 (K-Ras G12V)) | further results
5 | CCn1c(-c2cccnc2[C@H](C)OC)c2c3cc(ccc31)-c1csc(n1)C[C@H](NC(=O)[C@H](C(C)C)N(C)C(=O)N1CC[C@@]3(CCN(C)C3=O)C1)C(=O)N1CCC[C@H](N1)C(=O)OCC(C)(C)C2 (single isomer, unassigned) [Example A495] | 10 to 100 nM | 100 to 1000 nM | 100 to 1000 nM | 100 to 1000 nM | 1000 to 10000 nM | 1000 to 10000 nM | 100 to 1000 nM | 100 to 1000 nM | 100 to 1000 nM | 100 to 1000 nM | 100 to 1000 nM | 100 to 1000 nM | 100 to 1000 nM | 100 to 1000 nM | 
